Laboratory results reported in ChEMBL document CHEMBL3763040, “3,5-Bis(3-alkylaminomethyl-4-hydroxybenzylidene)-4-piperidones: A Novel Class of Potent Tumor-Selective Cytotoxins” (J Med Chem, 2016).

Experiments:
[1] = Cytotoxicity against human HCT116 cells after 48 hrs by sulforhodamine B assay; assay type: functional, cell-based; details: HCT-116, 48 h
[2] = Cytotoxicity against human SW620 cells after 48 hrs by sulforhodamine B assay; assay type: functional, cell-based; details: SW-620, 48 h
[3] = Cytotoxicity against human HCT15 cells after 48 hrs by sulforhodamine B assay; assay type: functional, cell-based; details: HCT-15, 48 h
KM12 = assay: Cytotoxicity against human KM12 cells after 48 hrs by sulforhodamine B assay; assay type: functional, cell-based; details: KM12, 48 h
[4] = Cytotoxicity against human HCC2998 cells after 48 hrs by sulforhodamine B assay; assay type: functional, cell-based; details: HCC 2998, 48 h
HT-29 = assay: Cytotoxicity against human HT-29 cells after 48 hrs by sulforhodamine B assay; assay type: functional, cell-based; details: HT-29, 48 h
[5] = Cytotoxicity against human COLO205 cells after 48 hrs by sulforhodamine B assay; assay type: functional, cell-based; details: COLO 205, 48 h
HSC-4 = assay: Selectivity index, ratio of CC50 for HGF to CC50 for human HSC4 cells; details: pooled result: one value given for 3 cell lines, strains, targets or settings
HSC-3 = assay: Selectivity index, ratio of CC50 for HGF to CC50 for human HSC3 cells; details: pooled result: one value given for 3 cell lines, strains, targets or settings
CCRF-CEM [6] = assay: Antiproliferative activity against human CEM cells assessed as cell survival after 72 hrs by coulter counter analysis; assay type: functional, cell-based
L1210 = assay: Antiproliferative activity against mouse L1210 cells assessed as cell survival after 48 hrs by coulter counter analysis; assay type: functional, cell-based; details: L1210, 48 h
[7] = Cytotoxicity against HGF assessed as cell death after 48 hrs by MTT assay; details: human, HGF cells
[8] = Cytotoxicity against HPC assessed as cell death after 48 hrs by MTT assay; details: human, HPC cells
HL-60 = assay: Selectivity index, ratio of CC50 for HGF to CC50 for human HL60 cells; details: pooled result: one value given for 3 cell lines, strains, targets or settings
HSC-2 = assay: Selectivity index, ratio of CC50 for HGF to CC50 for human HSC2 cells; details: pooled result: one value given for 3 cell lines, strains, targets or settings
[9] = Cytotoxicity against human HL60 cells assessed as cell death after 48 hrs by MTT assay; assay type: functional; details: HL-60, 48 h
[10] = Cytotoxicity against human HSC4 cells assessed as cell death after 48 hrs by MTT assay; assay type: functional; details: HSC-4, 48 h
[11] = Cytotoxicity against HPLF assessed as cell death after 48 hrs by MTT assay; details: human, HPLF cells
[12] = Cytotoxicity against human HSC2 cells assessed as cell death after 48 hrs by MTT assay; assay type: functional; details: HSC-2, 48 h
[13] = Antiproliferative activity against human Molt4/C8 cells assessed as cell survival after 72 hrs by coulter counter analysis; assay type: functional, cell-based; details: MOLT-4, 72 h
[14] = Cytotoxicity against human HSC3 cells assessed as cell death after 48 hrs by MTT assay; assay type: functional; details: HSC-3, 48 h
CCRF-CEM [15] = assay: Potency index, ratio of melphalan IC50 to compound IC50 for antiproliferative activity against human CEM cells; assay type: functional
[16] = Potency index, ratio of melphalan IC50 to compound IC50 for antiproliferative activity against human Molt4/C8 cells; assay type: functional, MOLT-4

| SMILES | Selectivity Index (HSC-4) | Selectivity Index (HSC-3) | IC50 (CCRF-CEM [6]) [µM] | IC50 (L1210) [µM] | CC50 at 48 h [7] [µM] | CC50 at 48 h [8] [µM] | Selectivity Index (HL-60) | Selectivity Index (HSC-2) | CC50 [9] [µM] | CC50 [10] [µM] | CC50 at 48 h [11] [µM] | CC50 [12] [µM] | IC50 [13] [µM] | CC50 [14] [µM] | Ratio IC50 [16] | other results |
| --- | --- | --- | --- | --- | --- | --- | --- | --- | --- | --- | --- | --- | --- | --- | --- | --- |
| O=c1[nH]cc(F)c(=O)[nH]1 [FLUOROURACIL] |  |  |  |  |  |  |  |  |  |  |  |  |  |  |  | CC50 [1]: > 2510 µM; TGI [1]: > 1860 µM; CC50 [2]: > 2510 µM; TGI [2]: > 1860 µM; CC50 [3]: > 2510 µM; TGI [3]: > 1860 µM; CC50 (KM12): > 2510 µM; TGI (KM12): > 1860 µM; CC50 [4]: > 2510 µM; TGI [4]: > 1860 µM; CC50 (HT-29): > 2510 µM; TGI (HT-29): > 1860 µM; CC50 [5]: > 2510 µM; TGI [5]: > 1860 µM |
| O=C(/C=C/c1ccc(O)cc1)/C=C/c1ccc(O)cc1 | 3.35 | 3.04 | 3.38 | 7.74 | 24 | 9.2 | 4.21 | 3.09 | 3.9 | 4.9 | 16 | 5.3 | 3.69 | 5.4 |  |  |
| Cl.Cl.Cl.O=C1/C(=C/c2ccc(O)c(CN3CCOCC3)c2)CNC/C1=C\c1ccc(O)c(CN2CCOCC2)c1 | 3.3 | 3.63 | 1.67 | 7.78 | 3.7 | 3.4 | 5.11 | 6.05 | 0.71 | 1.1 | 3.8 | 0.6 | 1.6 | 1 | 2.03 | Ratio IC50 (CCRF-CEM [15]): 1.48 |
| O=C1/C(=C/c2ccc(O)cc2)CCC/C1=C\c1ccc(O)cc1 | >3.23 | >4 | 6.96 | 10.7 | > 200 | > 200 | >105 | >12.5 | 1.9 | 62 | > 200 | 16 | 1.06 | 50 | 3.06 |  |
| N[C@@H](Cc1ccc(N(CCCl)CCCl)cc1)C(=O)O | 6.56 | 8.4 |  |  |  |  | 150 | 24.1 | 1.4 | 32 |  | 8.7 |  | 25 |  |  |
